Measured values published in PMC5218480 (PLoS ONE, 2017).

Test system: MV-4-11 cells
Assay: Gene expression microarray analysis (Affymetrix PrimeView) and GSEA
Assay type: cell-based, human
Set-up: RFU PODN (11730768_x_at) / Fold change /veh PODN (11730768_x_at) / RFU LINC00158 (11744669_a_at) / Fold change /veh LINC00158 (11744669_a_at) / RFU DUSP10 (11751237_a_at) / Fold change /veh DUSP10 (11751237_a_at) / RFU ID3 (11757404_x_at) / Fold change /veh ID3 (11757404_x_at) / RFU PLEKHG5 (11737974_s_at) / Fold change /veh PLEKHG5 (11737974_s_at) / RFU LRRC4B (11730491_at) / Fold change /veh LRRC4B (11730491_at) / RFU GIMAP4 (11747438_a_at) / Fold change /veh GIMAP4 (11747438_a_at) / RFU KRT8 (11758183_x_at) / Fold change /veh KRT8 (11758183_x_at) / RFU CNN1 (11734310_a_at) / Fold change /veh CNN1 (11734310_a_at) / RFU VPS37D (11726825_at) / Fold change /veh VPS37D (11726825_at) / RFU C10orf10 (11716522_x_at) / Fold change /veh C10orf10 (11716522_x_at) / RFU KIR2DL2 /// KIR2DL4 /// KIR2DL5A /// KIR2DL5B /// KIR2DS1 /// KIR2DS2 /// KIR2DS3 /// KIR2DS4 /// KIR3DL3 /// KIR3DL3 /// KIR3DS1 (11738374_at) / Fold change /veh KIR2DL2 /// KIR2DL4 /// KIR2DL5A /// KIR2DL5B /// KIR2DS1 /// KIR2DS2 /// KIR2DS3 /// KIR2DS4 /// KIR3DL3 /// KIR3DL3 /// KIR3DS1 (11738374_at) / RFU C1QL1 (11718748_at) / Fold change /veh C1QL1 (11718748_at) / RFU TMPRSS4 (11747572_a_at) / Fold change /veh TMPRSS4 (11747572_a_at) / RFU HAMP (11756126_x_at) / Fold change /veh HAMP (11756126_x_at) / RFU RNFT2 (11725882_a_at) / Fold change /veh RNFT2 (11725882_a_at) / RFU NR4A2 (11747474_a_at) / Fold change /veh NR4A2 (11747474_a_at) / RFU ABCC12 (11746883_a_at) / Fold change /veh ABCC12 (11746883_a_at) / RFU TMEM136 (11760407_x_at) / Fold change /veh TMEM136 (11760407_x_at) / RFU CLDN22 /// WWC2 (11732394_at) / Fold change /veh CLDN22 /// WWC2 (11732394_at) / RFU HLA-DPB1 (11760878_x_at) / Fold change /veh HLA-DPB1 (11760878_x_at) / RFU SPINT1 (11716480_a_at) / Fold change /veh SPINT1 (11716480_a_at) / RFU GAP43 (11754022_s_at) / Fold change /veh GAP43 (11754022_s_at) / RFU A4GNT (11735810_at) / Fold change /veh A4GNT (11735810_at) / RFU PRB3 (11715151_x_at) / Fold change /veh PRB3 (11715151_x_at) / RFU TUBB4B (11761932_at) / Fold change /veh TUBB4B (11761932_at) / RFU CAPN14 (11732068_a_at) / Fold change /veh CAPN14 (11732068_a_at) / RFU TMCC2 (11721928_a_at) / Fold change /veh TMCC2 (11721928_a_at) / RFU IRGQ (11745062_a_at) / Fold change /veh IRGQ (11745062_a_at) / RFU FAM174B (11720279_a_at) / Fold change /veh FAM174B (11720279_a_at) / RFU TMPRSS4 (11748680_a_at) / Fold change /veh TMPRSS4 (11748680_a_at) / RFU FAM212B (11763350_a_at) / Fold change /veh FAM212B (11763350_a_at) / RFU PLEKHG5 (11743358_a_at) / Fold change /veh PLEKHG5 (11743358_a_at) / RFU ZSCAN30 (11745921_a_at) / Fold change /veh ZSCAN30 (11745921_a_at) / RFU CMKLR1 (11741424_a_at) / Fold change /veh CMKLR1 (11741424_a_at) / RFU LOC101060620 /// MAPK8IP1 (11723275_at) / Fold change /veh LOC101060620 /// MAPK8IP1 (11723275_at) / RFU SPTSSB (11747773_x_at) / Fold change /veh SPTSSB (11747773_x_at) / RFU PRSS12 (11739890_at) / Fold change /veh PRSS12 (11739890_at) / RFU BIN1 (11741810_x_at) / Fold change /veh BIN1 (11741810_x_at) / RFU WNT11 (11732464_a_at) / Fold change /veh WNT11 (11732464_a_at) / RFU C10orf10 (11716521_a_at) / Fold change /veh C10orf10 (11716521_a_at) / RFU C5orf56 (11738089_at) / Fold change /veh C5orf56 (11738089_at) / RFU CYB561 (11721691_x_at) / Fold change /veh CYB561 (11721691_x_at) / RFU ANKRD19P (11752326_a_at) / Fold change /veh ANKRD19P (11752326_a_at) / RFU OR2T12 /// OR2T33 /// OR2T8 (11738714_s_at) / Fold change /veh OR2T12 /// OR2T33 /// OR2T8 (11738714_s_at) / RFU VCAN (11748164_a_at) / Fold change /veh VCAN (11748164_a_at) / RFU JSRP1 (11732532_at) / Fold change /veh JSRP1 (11732532_at) / RFU KRTAP10-11 (11738290_x_at) / Fold change /veh KRTAP10-11 (11738290_x_at) / RFU MYO3A (11730013_a_at) / Fold change /veh MYO3A (11730013_a_at) / RFU EBF3 (11725865_a_at) / Fold change /veh EBF3 (11725865_a_at) / RFU CAMK2N1 (11719241_x_at) / Fold change /veh CAMK2N1 (11719241_x_at) / RFU C5orf56 (11738088_a_at) / Fold change /veh C5orf56 (11738088_a_at) / RFU OLFML3 (11715873_a_at) / Fold change /veh OLFML3 (11715873_a_at) / RFU LOC100653217 /// NTM (11731650_a_at) / Fold change /veh LOC100653217 /// NTM (11731650_a_at) / RFU MAPK11 (11762145_a_at) / Fold change /veh MAPK11 (11762145_a_at) / RFU FIZ1 (11724087_x_at) / Fold change /veh FIZ1 (11724087_x_at) / RFU OASL (11726364_x_at) / Fold change /veh OASL (11726364_x_at) / RFU SOX15 (11748057_x_at) / Fold change /veh SOX15 (11748057_x_at) / RFU CD79A (11719716_a_at) / Fold change /veh CD79A (11719716_a_at) / RFU HIST1H1D (11736915_at) / Fold change /veh HIST1H1D (11736915_at) / RFU CASKIN2 (11723855_a_at) / Fold change /veh CASKIN2 (11723855_a_at) / RFU LOC730098 (11760151_x_at) / Fold change /veh LOC730098 (11760151_x_at) / RFU OR4N2 (11742367_at) / Fold change /veh OR4N2 (11742367_at) / RFU PRRT2 (11749266_a_at) / Fold change /veh PRRT2 (11749266_a_at) / RFU SNX32 (11753110_a_at) / Fold change /veh SNX32 (11753110_a_at) / RFU CDHR5 (11726645_a_at) / Fold change /veh CDHR5 (11726645_a_at) / RFU RCAN1 (11760418_a_at) / Fold change /veh RCAN1 (11760418_a_at) / RFU FAM167A (11723789_a_at) / Fold change /veh FAM167A (11723789_a_at) / RFU FAM26E (11764081_at) / Fold change /veh FAM26E (11764081_at) / RFU ISYNA1 (11749810_s_at) / Fold change /veh ISYNA1 (11749810_s_at) / RFU ACY1 (11761880_at) / Fold change /veh ACY1 (11761880_at) / RFU 11764098_at / Fold change /veh 11764098_at / RFU SAMD14 (11745864_x_at) / Fold change /veh SAMD14 (11745864_x_at) / RFU NPB (11741838_a_at) / Fold change /veh NPB (11741838_a_at) / RFU TMPRSS6 (11731388_a_at) / Fold change /veh TMPRSS6 (11731388_a_at) / RFU KRTAP10-2 (11738614_at) / Fold change /veh KRTAP10-2 (11738614_at) / RFU ARHGAP8 /// PRR5-ARHGAP8 (11727945_x_at) / Fold change /veh ARHGAP8 /// PRR5-ARHGAP8 (11727945_x_at) / RFU KRTAP5-7 /// NADSYN1 (11734609_at) / Fold change /veh KRTAP5-7 /// NADSYN1 (11734609_at) / RFU RASL12 (11751679_a_at) / Fold change /veh RASL12 (11751679_a_at) / RFU CDKN2B (11736163_a_at) / Fold change /veh CDKN2B (11736163_a_at) / RFU PRF1 (11729649_at) / Fold change /veh PRF1 (11729649_at) / RFU, ZNF638 /// ZNF638-IT1 / Fold change vs veh, ZNF638 /// ZNF638-IT1 / RFU, PANK3 / Fold change vs veh, PANK3 / RFU, SH3YL1 / Fold change vs veh, SH3YL1 / RFU, ZEB2 / Fold change vs veh, ZEB2 / RFU, NRIP1 / Fold change vs veh, NRIP1 / RFU, PTTG1IP / Fold change vs veh, PTTG1IP / RFU, CAPN2 / Fold change vs veh, CAPN2 / RFU, MED14 / Fold change vs veh, MED14 / RFU, SNORA58 / Fold change vs veh, SNORA58 / RFU, C1orf63 / Fold change vs veh, C1orf63 / RFU, LRRFIP1 / Fold change vs veh, LRRFIP1 / RFU, NDUFAF7 / Fold change vs veh, NDUFAF7 / RFU, SLC12A2 / Fold change vs veh, SLC12A2 / RFU, IBTK / Fold change vs veh, IBTK / RFU, ESF1 / Fold change vs veh, ESF1 / Fold change vs veh, TMEM50B / RFU, TAOK1 / Fold change vs veh, TAOK1 / RFU, ACBD3 / Fold change vs veh, ACBD3 / RFU, TMA16 / Fold change vs veh, TMA16 / RFU, RWDD3 / Fold change vs veh, RWDD3 / RFU, BCAT1 / Fold change vs veh, BCAT1 / RFU, EDEM3 / Fold change vs veh, EDEM3 / RFU, TMEM33 / Fold change vs veh, TMEM33 / RFU, WDR75 / Fold change vs veh, WDR75 / RFU, AHCTF1 / Fold change vs veh, AHCTF1 / RFU, TFRC / Fold change vs veh, TFRC / RFU, ZDHHC17 / Fold change vs veh, ZDHHC17 / RFU, NOM1 / Fold change vs veh, NOM1 / RFU, ARL8B / Fold change vs veh, ARL8B / RFU, ZBTB11 / Fold change vs veh, ZBTB11 / RFU, TAMM41 / Fold change vs veh, TAMM41 / RFU, KIAA1704 /// LOC100996395 / Fold change vs veh, KIAA1704 /// LOC100996395 / RFU, ING1 / Fold change vs veh, ING1 / RFU, TRMT61B / Fold change vs veh, TRMT61B / RFU, FUBP3 / Fold change vs veh, FUBP3 / RFU, TP53 / Fold change vs veh, TP53 / RFU, TNKS2 / Fold change vs veh, TNKS2 / RFU, ZFP14 / Fold change vs veh, ZFP14 / RFU, ACTR2 / Fold change vs veh, ACTR2 / RFU, PPP3R1 / Fold change vs veh, PPP3R1 / RFU, PIK3R1 / Fold change vs veh, PIK3R1 / RFU, HNRNPA1 / Fold change vs veh, HNRNPA1 / RFU, RNF170 / Fold change vs veh, RNF170 / RFU, ZNF28 / Fold change vs veh, ZNF28 / RFU, RNGTT / Fold change vs veh, RNGTT / RFU, OGT / Fold change vs veh, OGT / RFU, BRD1 / Fold change vs veh, BRD1 / RFU, MARS / Fold change vs veh, MARS / RFU, ZNF655 / Fold change vs veh, ZNF655 / RFU, FAHD1 / Fold change vs veh, FAHD1 / RFU, BDP1 / Fold change vs veh, BDP1 / RFU, LRRCC1 / Fold change vs veh, LRRCC1 / RFU, ARID1A / Fold change vs veh, ARID1A / RFU, ZNF146 / Fold change vs veh, ZNF146 / RFU, ZNF330 / Fold change vs veh, ZNF330 / RFU, GPN3 / Fold change vs veh, GPN3 / RFU, C9orf123 / Fold change vs veh, C9orf123 / RFU, N4BP2L2 / Fold change vs veh, N4BP2L2 / RFU, ARFIP1 / Fold change vs veh, ARFIP1 / RFU, FAM179B / Fold change vs veh, FAM179B / RFU, BCL10 / Fold change vs veh, BCL10 / RFU, UHRF1BP1L / Fold change vs veh, UHRF1BP1L / RFU, BET1 / Fold change vs veh, BET1 / RFU, CNOT2 / Fold change vs veh, CNOT2 / RFU, ZNF268 / Fold change vs veh, ZNF268 / Fold change vs veh, ZNF507 / RFU, DGCR2 / Fold change vs veh, DGCR2 / RFU, WDSUB1 / Fold change vs veh, WDSUB1 / Fold change vs veh, HSP90B1 /// MIR3652 / RFU, ADSS / Fold change vs veh, ADSS / RFU, GK / Fold change vs veh, GK / RFU, ZNF148 / Fold change vs veh, ZNF148 / RFU, TAF9 / Fold change vs veh, TAF9 / RFU, SLC1A5 / Fold change vs veh, SLC1A5 / RFU, SLMO2 / Fold change vs veh, SLMO2 / RFU, ABCC4 / Fold change vs veh, ABCC4 / RFU, LOC101060439 /// RAP1B / Fold change vs veh, LOC101060439 /// RAP1B / RFU, RFX7 / Fold change vs veh, RFX7 / RFU, GTPBP10 / Fold change vs veh, GTPBP10 / RFU, CNEP1R1 / Fold change vs veh, CNEP1R1 / RFU, BIVM-ERCC5 /// ERCC5 / Fold change vs veh, BIVM-ERCC5 /// ERCC5 / RFU, ILF3 / Fold change vs veh, ILF3 / RFU 11762660_at / Fold change /veh 11762660_at / RFU VCAN (11757783_s_at) / Fold change /veh VCAN (11757783_s_at) / RFU DDX43 (11728927_at) / Fold change /veh DDX43 (11728927_at) / RFU KRT8 (11758188_x_at) / Fold change /veh KRT8 (11758188_x_at) / RFU NKD1 (11759106_at) / Fold change /veh NKD1 (11759106_at) / RFU SRD5A1 (11742802_a_at) / Fold change /veh SRD5A1 (11742802_a_at) / RFU TPSAB1 /// TPSB2 (11721975_s_at) / Fold change /veh TPSAB1 /// TPSB2 (11721975_s_at) / RFU GSTM3 (11746129_a_at) / Fold change /veh GSTM3 (11746129_a_at) / RFU IL23R (11737362_x_at) / Fold change /veh IL23R (11737362_x_at) / RFU TMEM51 (11727254_a_at) / Fold change /veh TMEM51 (11727254_a_at) / RFU PIWIL2 (11732686_x_at) / Fold change /veh PIWIL2 (11732686_x_at) / RFU ORM1 (11744905_x_at) / Fold change /veh ORM1 (11744905_x_at) / RFU CCDC152 (11743942_at) / Fold change /veh CCDC152 (11743942_at) / RFU ECM1 (11717891_a_at) / Fold change /veh ECM1 (11717891_a_at) / RFU IL23R (11748794_a_at) / Fold change /veh IL23R (11748794_a_at) / RFU TNFAIP8L3 (11732012_x_at) / Fold change /veh TNFAIP8L3 (11732012_x_at) / RFU MBOAT4 (11741988_at) / Fold change /veh MBOAT4 (11741988_at) / RFU 11764193_at / Fold change /veh 11764193_at / RFU TMEM53 (11763286_at) / Fold change /veh TMEM53 (11763286_at) / RFU MAGEB2 (11727129_at) / Fold change /veh MAGEB2 (11727129_at) / RFU TMEM200A (11744735_a_at) / Fold change /veh TMEM200A (11744735_a_at) / RFU CCDC152 (11751479_a_at) / Fold change /veh CCDC152 (11751479_a_at) / RFU FAM211A (11726209_a_at) / Fold change /veh FAM211A (11726209_a_at) / RFU RGS16 (11746705_a_at) / Fold change /veh RGS16 (11746705_a_at) / RFU VCAN (11755009_s_at) / Fold change /veh VCAN (11755009_s_at) / RFU RHOB (11743442_s_at) / Fold change /veh RHOB (11743442_s_at) / RFU RGS16 (11720943_a_at) / Fold change /veh RGS16 (11720943_a_at) / RFU RGS16 (11720944_at) / Fold change /veh RGS16 (11720944_at) / RFU, VPS4B / Fold change vs veh, VPS4B / RFU, CREB1 / Fold change vs veh, CREB1 / RFU, DNAJC13 / Fold change vs veh, DNAJC13 / RFU, GNAQ / Fold change vs veh, GNAQ / RFU, CDK5R1 / Fold change vs veh, CDK5R1 / RFU, ZRANB3 / Fold change vs veh, ZRANB3 / RFU, CUL4A / Fold change vs veh, CUL4A / RFU, CCNY / Fold change vs veh, CCNY / RFU, UFL1 / Fold change vs veh, UFL1 / RFU, COG3 / Fold change vs veh, COG3 / RFU, DIAPH2 / Fold change vs veh, DIAPH2 / RFU, SKA2 / Fold change vs veh, SKA2 / RFU, AFF3 / Fold change vs veh, AFF3 / RFU, LMF1 / Fold change vs veh, LMF1 / RFU, IPO11 / Fold change vs veh, IPO11 / RFU, DFFB / Fold change vs veh, DFFB / RFU, FOXP1 / Fold change vs veh, FOXP1 / RFU, CARD8 / Fold change vs veh, CARD8 / RFU, STRN3 / Fold change vs veh, STRN3 / RFU, ADK / Fold change vs veh, ADK / RFU, RASSF2 / Fold change vs veh, RASSF2 / RFU, WIPF1 / Fold change vs veh, WIPF1 / RFU, LARP1B / Fold change vs veh, LARP1B / RFU, RASA1 / Fold change vs veh, RASA1 / RFU, RB1 / Fold change vs veh, RB1 / RFU, PPFIA1 / Fold change vs veh, PPFIA1 / RFU, MAT2A / Fold change vs veh, MAT2A / RFU, CCT5 / Fold change vs veh, CCT5 / RFU, WDR92 / Fold change vs veh, WDR92 / RFU, CUX1 / Fold change vs veh, CUX1 / RFU, TTC7A / Fold change vs veh, TTC7A / RFU, TMEM135 / Fold change vs veh, TMEM135 / RFU, DEPTOR / Fold change vs veh, DEPTOR / RFU, CPM / Fold change vs veh, CPM / RFU, DNAJB6 / Fold change vs veh, DNAJB6 / RFU, CACNA2D3 / Fold change vs veh, CACNA2D3 / RFU, DTX4 / Fold change vs veh, DTX4 / RFU, TFCP2 / Fold change vs veh, TFCP2 / RFU, GMCL1 /// GMCL1P1 / Fold change vs veh, GMCL1 /// GMCL1P1 / RFU, AEBP2 / Fold change vs veh, AEBP2 / RFU, SNHG1 /// SNORD22 /// SNORD25 /// SNORD26 /// SNORD27 /// SNORD28 /// SNORD29 /// SNORD31 / Fold change vs veh, SNHG1 /// SNORD22 /// SNORD25 /// SNORD26 /// SNORD27 /// SNORD28 /// SNORD29 /// SNORD31 / Fold change (Aza/veh), C12orf56 (ProbeSet 11735607_a_at) / Fold change (ACY-1035/veh), C12orf56 (ProbeSet 11735607_a_at) / Fold change (Aza/veh), FGFR1OP (ProbeSet 11751329_s_at) / Fold change (ACY-1035/veh), FGFR1OP (ProbeSet 11751329_s_at) / Fold change (Aza/veh), VPS36 (ProbeSet 11739960_a_at) / Fold change (ACY-1035/veh), VPS36 (ProbeSet 11739960_a_at) / RFU SYPL1 (11715823_x_at) / Fold change /veh SYPL1 (11715823_x_at) / RFU IGFBP7 (11715501_s_at) / Fold change /veh IGFBP7 (11715501_s_at) / RFU REEP3 (11722064_at) / Fold change /veh REEP3 (11722064_at) / RFU IGLL1 (11728026_x_at) / Fold change /veh IGLL1 (11728026_x_at): dose or concentration left out as unconfirmed
Conditions: ProbeSet 11755159_a_at; LIST D

Nc1ccc(-c2cccs2)cc1NC(=O)c1ccc2c(c1)cc(C1CC1)n2CCN1CCOCC1 [ACY-1035]
RFU, COG3: 86.80 RFU
